# Laboratory results as given in PubChem BioAssay (NCI).
#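 Following 48 hours of exposure in 96-well plates, responses at five concentrations were used to interpolate endpoints linearly. TGI: total growth inhibition.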
# Key:
# Test in all cases: inhibition of tumour cell growth, NCI panel, 48 h
# 786-0 renal = test system: 786-0 renal
# A498 renal = test system: A498 renal
# A549 NSCLC = test system: A549 NSCLC
# ACHN renal = test system: ACHN renal
# CAKI-1 renal = test system: CAKI-1 renal
# CCRF-CEM leukemia = test system: CCRF-CEM leukemia
# COLO 205 colon = test system: COLO 205 colon
# DU-145 prostate = test system: DU-145 prostate
# EKVX NSCLC = test system: EKVX NSCLC
# HCC-2998 colon = test system: HCC-2998 colon
# HCT-116 colon = test system: HCT-116 colon
# HCT-15 colon = test system: HCT-15 colon
# HL-60(TB) leukemia = test system: HL-60(TB) leukemia
# HOP-62 NSCLC = test system: HOP-62 NSCLC
# HOP-92 NSCLC = test system: HOP-92 NSCLC
# HS 578T breast = test system: HS 578T breast
# HT29 colon = test system: HT29 colon
# IGROV1 ovarian = test system: IGROV1 ovarian
# K-562 leukemia = test system: K-562 leukemia
# KM12 colon = test system: KM12 colon
# LOX IMVI melanoma = test system: LOX IMVI melanoma
# MALME-3M melanoma = test system: MALME-3M melanoma
# MCF7 breast = test system: MCF7 breast
# MDA-MB-231 breast = test system: MDA-MB-231 breast
# MDA-MB-435 = test system: MDA-MB-435
# MDA-N = test system: MDA-N
# MOLT-4 leukemia = test system: MOLT-4 leukemia
# NCI-H226 lung = test system: NCI-H226 lung
# NCI-H23 lung = test system: NCI-H23 lung
# NCI-H460 lung = test system: NCI-H460 lung
# NCI-H522 lung = test system: NCI-H522 lung
# NCI/ADR-RES ovarian = test system: NCI/ADR-RES ovarian
# OVCAR-3 ovarian = test system: OVCAR-3 ovarian
# OVCAR-4 ovarian = test system: OVCAR-4 ovarian
# OVCAR-5 ovarian = test system: OVCAR-5 ovarian
# OVCAR-8 ovarian = test system: OVCAR-8 ovarian
# PC-3 prostate = test system: PC-3 prostate
# RPMI-8226 leukemia = test system: RPMI-8226 leukemia
# RXF 393 renal = test system: RXF 393 renal
# SF-268 CNS = test system: SF-268 CNS
# SF-295 CNS = test system: SF-295 CNS
# SK-MEL-2 melanoma = test system: SK-MEL-2 melanoma
# SK-MEL-28 melanoma = test system: SK-MEL-28 melanoma
# SK-MEL-5 melanoma = test system: SK-MEL-5 melanoma
# SK-OV-3 ovarian = test system: SK-OV-3 ovarian
# SN12C renal = test system: SN12C renal
# SNB-19 CNS = test system: SNB-19 CNS
# SNB-75 CNS = test system: SNB-75 CNS
# SW-620 colon = test system: SW-620 colon
# T-47D breast = test system: T-47D breast
# TK-10 renal = test system: TK-10 renal
# U251 CNS = test system: U251 CNS
# UACC-257 melanoma = test system: UACC-257 melanoma
# UACC-62 melanoma = test system: UACC-62 melanoma
# UO-31 renal = test system: UO-31 renal
# M14 melanoma = test system: M14 melanoma
# SF-539 CNS = test system: SF-539 CNS
# BT-549 breast = test system: BT-549 breast
compound,measurement,setting,value
CN(CCCNCc1ccccn1)Cc1ccccc1O,TGI,786-0 renal,> 100 µM
same,TGI,A498 renal,> 100 µM
same,TGI,A549 NSCLC,> 100 µM
same,TGI,ACHN renal,42.3 µM
same,TGI,CAKI-1 renal,> 100 µM
same,TGI,CCRF-CEM leukemia,> 100 µM
same,TGI,COLO 205 colon,94.4 µM
same,TGI,DU-145 prostate,> 100 µM
same,TGI,EKVX NSCLC,> 100 µM
same,TGI,HCC-2998 colon,> 100 µM
same,TGI,HCT-116 colon,> 100 µM
same,TGI,HCT-15 colon,> 100 µM
same,TGI,HL-60(TB) leukemia,> 100 µM
same,TGI,HOP-62 NSCLC,> 100 µM
same,TGI,HOP-92 NSCLC,> 100 µM
same,TGI,HS 578T breast,> 100 µM
same,TGI,HT29 colon,94.4 µM
same,TGI,IGROV1 ovarian,> 100 µM
same,TGI,K-562 leukemia,> 100 µM
same,TGI,KM12 colon,> 100 µM
same,TGI,LOX IMVI melanoma,> 100 µM
same,TGI,MALME-3M melanoma,> 100 µM
same,TGI,MCF7 breast,> 100 µM
same,TGI,MDA-MB-231 breast,> 100 µM
same,TGI,MDA-MB-435,> 100 µM
same,TGI,MDA-N,> 100 µM
same,TGI,MOLT-4 leukemia,> 100 µM
same,TGI,NCI-H226 lung,97.8 µM
same,TGI,NCI-H23 lung,55.6 µM
same,TGI,NCI-H460 lung,> 100 µM
same,TGI,NCI-H522 lung,> 100 µM
same,TGI,NCI/ADR-RES ovarian,95.2 µM
same,TGI,OVCAR-3 ovarian,> 100 µM
same,TGI,OVCAR-4 ovarian,> 100 µM
same,TGI,OVCAR-5 ovarian,> 100 µM
same,TGI,OVCAR-8 ovarian,> 100 µM
same,TGI,PC-3 prostate,> 100 µM
same,TGI,RPMI-8226 leukemia,> 100 µM
same,TGI,RXF 393 renal,> 100 µM
same,TGI,SF-268 CNS,> 100 µM
same,TGI,SF-295 CNS,54.7 µM
same,TGI,SK-MEL-2 melanoma,> 100 µM
same,TGI,SK-MEL-28 melanoma,> 100 µM
same,TGI,SK-MEL-5 melanoma,51.6 µM
same,TGI,SK-OV-3 ovarian,> 100 µM
same,TGI,SN12C renal,> 100 µM
same,TGI,SNB-19 CNS,68.5 µM
same,TGI,SNB-75 CNS,> 100 µM
same,TGI,SW-620 colon,> 100 µM
same,TGI,T-47D breast,> 100 µM
same,TGI,TK-10 renal,64.8 µM
same,TGI,U251 CNS,> 100 µM
same,TGI,UACC-257 melanoma,92.2 µM
same,TGI,UACC-62 melanoma,43.2 µM
same,TGI,UO-31 renal,19.8 µM
CN(CCCN=C=S)CCCN1c2ccccc2CCc2ccccc21,TGI,786-0 renal,3.08 µM
same,TGI,A498 renal,3.07 µM
same,TGI,A549 NSCLC,3.16 µM
same,TGI,ACHN renal,3.12 µM
same,TGI,CAKI-1 renal,3.21 µM
same,TGI,CCRF-CEM leukemia,> 100 µM
same,TGI,DU-145 prostate,3.22 µM
same,TGI,HCC-2998 colon,2.69 µM
same,TGI,HCT-116 colon,3.09 µM
same,TGI,HCT-15 colon,2.9 µM
same,TGI,HOP-92 NSCLC,4.29 µM
same,TGI,HS 578T breast,4.03 µM
same,TGI,HT29 colon,2.94 µM
same,TGI,K-562 leukemia,> 100 µM
same,TGI,KM12 colon,3.5 µM
same,TGI,M14 melanoma,3.16 µM
same,TGI,MALME-3M melanoma,3.48 µM
same,TGI,MDA-MB-231 breast,3.29 µM
same,TGI,MDA-MB-435,3.27 µM
same,TGI,MDA-N,3.16 µM
same,TGI,MOLT-4 leukemia,> 100 µM
same,TGI,NCI-H23 lung,3.11 µM
same,TGI,NCI-H460 lung,3.45 µM
same,TGI,NCI/ADR-RES ovarian,2.67 µM
same,TGI,OVCAR-3 ovarian,3.14 µM
same,TGI,OVCAR-4 ovarian,3.56 µM
same,TGI,OVCAR-5 ovarian,3.35 µM
same,TGI,OVCAR-8 ovarian,3.43 µM
same,TGI,RXF 393 renal,3.39 µM
same,TGI,SF-268 CNS,3.24 µM
same,TGI,SF-539 CNS,3.46 µM
same,TGI,SK-MEL-2 melanoma,3.38 µM
same,TGI,SK-MEL-5 melanoma,3.43 µM
same,TGI,SK-OV-3 ovarian,3.16 µM
same,TGI,SN12C renal,3.17 µM
same,TGI,SNB-19 CNS,3.14 µM
same,TGI,T-47D breast,3.92 µM
same,TGI,TK-10 renal,3.26 µM
same,TGI,U251 CNS,3.26 µM
same,TGI,UACC-257 melanoma,3.85 µM
same,TGI,UACC-62 melanoma,3.2 µM
same,TGI,UO-31 renal,3 µM
Cc1cn(CCCC2=NCCCN2)c(=O)[nH]c1=O,TGI,786-0 renal,> 100 µM
same,TGI,A498 renal,> 100 µM
same,TGI,A549 NSCLC,> 100 µM
same,TGI,ACHN renal,> 100 µM
same,TGI,CAKI-1 renal,> 100 µM
same,TGI,CCRF-CEM leukemia,> 100 µM
same,TGI,COLO 205 colon,> 100 µM
same,TGI,DU-145 prostate,> 100 µM
same,TGI,EKVX NSCLC,> 100 µM
same,TGI,HCC-2998 colon,> 100 µM
same,TGI,HCT-116 colon,> 100 µM
same,TGI,HCT-15 colon,> 100 µM
same,TGI,HOP-62 NSCLC,> 100 µM
same,TGI,HOP-92 NSCLC,> 100 µM
same,TGI,HS 578T breast,> 100 µM
same,TGI,HT29 colon,> 100 µM
same,TGI,IGROV1 ovarian,> 100 µM
same,TGI,K-562 leukemia,> 100 µM
same,TGI,KM12 colon,> 100 µM
same,TGI,LOX IMVI melanoma,> 100 µM
same,TGI,M14 melanoma,> 100 µM
same,TGI,MALME-3M melanoma,> 100 µM
same,TGI,MCF7 breast,> 100 µM
same,TGI,MDA-MB-231 breast,> 100 µM
same,TGI,MDA-MB-435,> 100 µM
same,TGI,MDA-N,> 100 µM
same,TGI,MOLT-4 leukemia,> 100 µM
same,TGI,NCI-H226 lung,> 100 µM
same,TGI,NCI-H23 lung,> 100 µM
same,TGI,NCI-H460 lung,> 100 µM
same,TGI,NCI-H522 lung,> 100 µM
same,TGI,NCI/ADR-RES ovarian,> 100 µM
same,TGI,OVCAR-3 ovarian,> 100 µM
same,TGI,OVCAR-4 ovarian,> 100 µM
same,TGI,OVCAR-5 ovarian,> 100 µM
same,TGI,OVCAR-8 ovarian,> 100 µM
same,TGI,PC-3 prostate,> 100 µM
same,TGI,RPMI-8226 leukemia,> 100 µM
same,TGI,RXF 393 renal,> 100 µM
same,TGI,SF-268 CNS,> 100 µM
same,TGI,SF-295 CNS,> 100 µM
same,TGI,SF-539 CNS,> 100 µM
same,TGI,SK-MEL-2 melanoma,> 100 µM
same,TGI,SK-MEL-28 melanoma,> 100 µM
same,TGI,SK-MEL-5 melanoma,> 100 µM
same,TGI,SK-OV-3 ovarian,> 100 µM
same,TGI,SN12C renal,> 100 µM
same,TGI,SNB-19 CNS,> 100 µM
same,TGI,SNB-75 CNS,> 100 µM
same,TGI,SW-620 colon,> 100 µM
same,TGI,T-47D breast,> 100 µM
same,TGI,TK-10 renal,> 100 µM
same,TGI,U251 CNS,> 100 µM
same,TGI,UACC-257 melanoma,> 100 µM
same,TGI,UACC-62 melanoma,> 100 µM
same,TGI,UO-31 renal,> 100 µM
Cc1ccc(-c2cc(-c3ccccc3)nc(N)n2)c(O)c1,TGI,786-0 renal,> 100 µM
same,TGI,A498 renal,> 100 µM
same,TGI,A549 NSCLC,> 100 µM
same,TGI,ACHN renal,> 100 µM
same,TGI,BT-549 breast,> 100 µM
same,TGI,CAKI-1 renal,> 100 µM
same,TGI,CCRF-CEM leukemia,> 100 µM
same,TGI,COLO 205 colon,> 100 µM
same,TGI,DU-145 prostate,> 100 µM
same,TGI,HCC-2998 colon,> 100 µM
same,TGI,HCT-116 colon,> 100 µM
same,TGI,HCT-15 colon,> 100 µM
same,TGI,HL-60(TB) leukemia,> 100 µM
same,TGI,HOP-62 NSCLC,> 100 µM
same,TGI,HOP-92 NSCLC,> 100 µM
same,TGI,HT29 colon,> 100 µM
same,TGI,K-562 leukemia,> 100 µM
same,TGI,KM12 colon,> 100 µM
same,TGI,M14 melanoma,> 100 µM
same,TGI,MALME-3M melanoma,> 100 µM
same,TGI,MCF7 breast,> 100 µM
same,TGI,MDA-MB-231 breast,> 100 µM
same,TGI,MDA-MB-435,> 100 µM
same,TGI,MDA-N,> 100 µM
same,TGI,MOLT-4 leukemia,> 100 µM
same,TGI,NCI-H23 lung,> 100 µM
same,TGI,NCI-H460 lung,> 100 µM
same,TGI,NCI-H522 lung,> 100 µM
same,TGI,NCI/ADR-RES ovarian,> 100 µM
same,TGI,OVCAR-3 ovarian,> 100 µM
same,TGI,OVCAR-4 ovarian,> 100 µM
same,TGI,OVCAR-5 ovarian,> 100 µM
same,TGI,OVCAR-8 ovarian,> 100 µM
same,TGI,PC-3 prostate,> 100 µM
same,TGI,RPMI-8226 leukemia,> 100 µM
same,TGI,RXF 393 renal,> 100 µM
same,TGI,SF-268 CNS,> 100 µM
same,TGI,SF-295 CNS,> 100 µM
same,TGI,SF-539 CNS,> 100 µM
same,TGI,SK-MEL-2 melanoma,> 100 µM
same,TGI,SK-MEL-28 melanoma,> 100 µM
same,TGI,SK-MEL-5 melanoma,> 100 µM
same,TGI,SK-OV-3 ovarian,> 100 µM
same,TGI,SN12C renal,> 100 µM
same,TGI,SNB-19 CNS,> 100 µM
same,TGI,SW-620 colon,> 100 µM
same,TGI,T-47D breast,> 100 µM
same,TGI,TK-10 renal,> 100 µM
same,TGI,U251 CNS,> 100 µM
same,TGI,UACC-257 melanoma,> 100 µM
same,TGI,UACC-62 melanoma,> 100 µM
same,TGI,UO-31 renal,> 100 µM
